In assay [1] the test system is HT-1080 cells (NRAS^Q61K) transfected. The experiment in a line: Sensitivity of HT-1080 cells overexpressing KRAS^G12V, PI3K^E545K, BRAF^V600E. The format is cell-based. The note with it: BRAF^V600E or both, 5 μM, 24 h. As to the method: RAS, PI3K and BRAF Overexpression.
Phoenix-AMPHO (ATCC: CRL-3213) cells were seeded in a 6-well plate at 600,000 cells/well 24 hours prior to use in 10% FBS and 1% PS in DMEM. A solution of lipofectamine 2000 (6 μL) in 100 μL opti-mem media (reduced serum media) and the plasmid (2.5 μg) in 100 μL opti-mem media were combined and incubated 5 minutes at 25° C., then added to 1.8 mL of opti-mem in each well. After 12 hours, the media was replaced with 10% FBS and 1% PS in DMEM. The next day the supernatant was collected three times spaced 4 hours apart and polybrene was added ( 1/1000). The supernatant was filtered (0.45 μm) and added to HT1080 cells seeded at 100,000 cells per well (6-well dish) in 2 mL portions spaced 4 hours apart. After 48 hours, the cells were trypsinized and re-seeded in medium containing puromycin (2 μg/mL). After 6 days of selection the cells were analyzed for expression using the aforementioned qPCR procedure. 2 mL solutions of the inhibitors were added to a 6-well plate of the transfected HT-1080 cells (100,000 cells/well) and treated for 24 hours. The cells were then trypsinized, re-suspended in 1 mL of medium and viability was measured by VI-CELL (Beckman Coulter) through mixing with trypan blue.

In assay [2] the test system is Mouse embryonic fibroblasts (MEFs), null Hras and Nras, floxed Kras. The experiment in a line: Growth inhibition of MEFs with floxed Kras locus. The note with it: up to 5 μM, 24 hours, vs DMSO. The class given is cell-based. The protocol:
In parallel, cells were treated with DMSO or 4OHT at 600 nM for 6 days. […] Cells were then lysed and treated with a pro-fluorescent caspase 3/7 substrate (rhodamine 110 bis-N-CBZ-L-aspartyl-L-gluramyl-L-valyl-aspartic acid amide) for 16 hours and measured.
All cell culture assays were incubated at 37° C., 5% CO2 in media containing Dulbecco's Modified Eagle Medium (DMEM) with 10% fetal bovine serum (FBS) and 1% penicillin-streptomycin (PS). 384-well format for EC50 determination: cells were trypsinized, counted, and seeded into 384-well plates at 1,000 cells/well. After 12-16 hours, compounds (as 50 mM stocks in DMSO) were arrayed in an 8- or 16-point dilution series in 384-well polypropylene plates. Compound solutions were transferred at a 1:5 dilution into the assay plates. After 48 hours, a 50% Alamar blue solution was added to a final concentration of 10% Alamar blue. After 6 hours of incubation, fluorescence intensity was determined using a Victor3 plate reader (Perkin Elmer) with a 535 nm excitation filter and a 590 nm emission filter. All compound measurements were performed in triplicate. For experiments performed in 6-well format, cells were trypsinized, counted, and seeded into 6-well plates at 200,000 cells per well 16 h prior to use. […] After 24 hours, cells were trypsinized and viability was determined using Trypan Blue exclusion assay. […]

Assay [3] deals with BJeLR (HRAS^G12V) cells. The assay can be described thus: Gene expression analysis by RT-qPCR. The format is cell-based. As to the method: FIG. 22A-FIG. 22D show BJeLR cells were treated with DMSO, 31 MEW44 at 5 μM and/or 25 μM alongside BJHLT treated with DMSO for one hour. Cells were lysed and the RNA was extracted, converted to cDNA and quantified by qPCR.
Gene Expression Analysis by RT-qPCR
Cells from six-well plates were trypsinized and centrifuged at 3,000 rpm for 3 minutes. The cell pellet was then lysed and the RNA was extracted using QIAshreader and RNAeasy extraction kits (QIAGEN) according to the manufacturer's protocol. 2 micrograms of RNA from each sample was then converted to cDNA using the TaqMan RT Kit (Applied Biosystems). Primers for Quantitative PCR (qPCR) were designed with Primer Express. qPCR was performed using Power SYBR Green Master Mix (Applied Biosystems) in a 96-well format, in triplicate, using an Applied Biosystems 7300 Cycler set to absolute quantification. Expression changes were computed using the ΔΔCt method with GAPDH as an internal reference gene. The primers used were as follows: urokinase-type plasminogen activator (uPA) Forward 5′ […] 3′ (SEQ ID NO: 54), reverse 5′ […] 3′ (SEQ ID NO: 55); matrix metalloprotease 9 (MMP9) forward 5′ […] 3′ (SEQ ID NO: 56), reverse 5′ […] 3′ (SEQ ID NO: 57); lactate dehydrogenase (LDH) forward 5′ […] 3′ (SEQ ID NO: 58), reverse 5′ […] 3′ (SEQ ID NO: 59); CMYC forward 5′ […] 3′ (SEQ ID NO: 60), reverse 5′ […] 3′ (SEQ ID NO: 61).
For orientation: Real-time PCR tracks product formation cycle by cycle.

Assay [4] relates to primary T-ALL cells with wild-type NRAS. The experiment in a line: Viability of patient-derived T-ALL samples cultured in vitro, wild-type NRAS. The format is cell-based, human. The note with it: four samples, 5 μM, 72 hours. The protocol:
Primary Cell Co-Culture and In Vitro Cell Viability Assays.
Cells were harvested 72 hours after treatment and analyzed cell viability using the BD cell viability kit with liquid counting beads (BD Bioscience) gating out stroma cells (GFP+), dead cells and particles (PI+). We acquired data using a FACSCanto II flowcytometer (BD Bioscience) and analyzed it using FlowJo software (Tree Star, Inc.). Viability data is represented as % relative to vehicle treatment.

SMILES strings stand for the structures.

Regarding `NC1(C(=O)NCCCn2cc(-c3ccc(OC(F)(F)F)cc3)c3cc(CN4CCN(Cc5c(Cl)cccc5Cl)CC4)ccc32)CCNCC1` [Compound 31MEW44, 4-amino-N-(3-(5-((4-(2,6-dichlorobenzyl)piperazin-1-yl)methyl)-3-(4-(trifluoromethoxy)phenyl)-1H-indol-1-yl)propyl)piperidine-4-carboxamide], the resistance on overexpression entry in assay [1] is “resistance was indeed observed in all cases”. In assay [2], this compound came in with a growth inhibition of 75%. In assay [3], the “CMYC mRNA” value is “dose-dependent reduction in CMYC mRNA”; the LDH expression result was “decreased these elevated levels of LDH, dose-dependently”; the MMP9 expression entry was “Downregulation of MMP9 expression”. Further, in assay [3] (5 μM and 25 μM), the “DUSP6 and IDH2 expression profile” value is “profile characteristic of decreased activation of RAS signaling”; the uPA expression result was “dose-dependent decrease in uPA expression”. In addition, in assay [4], the viability result was “no observed decrease in viability”.

The record behind these values is patent US9926293B2, “Multivalent RAS binding compounds” (THE TRUSTEES OF COLUMBIA UNIVERSITY IN THE CITY OF NEW YORK, priority 2014, dated 2018).
